The values that follow come from ChEMBL document CHEMBL3132769, “Fragment growing to retain or alter the selectivity of anchored kinase hinge-binding fragments” (Medchemcomm, 2014).

For orientation: inhibition means the drop in the measured response relative to a control, in per cent.

Test [1] deals with Fibroblast growth factor receptor 2 (Homo sapiens) (UniProt P21802). The test can be described thus: Inhibition of human FGFR2 catalytic domain expressed in baculovirus assessed as substrate phosphorylation using fluorescence-labelled peptides as substrate at 0.2 uM after 90 mins by microfluidic peptide phosphorylation assay.
In test [2] the target is T1, Serine/threonine-protein kinase DCLK2 (Homo sapiens) (UniProt Q8N568).
T1 sequence (whole entry): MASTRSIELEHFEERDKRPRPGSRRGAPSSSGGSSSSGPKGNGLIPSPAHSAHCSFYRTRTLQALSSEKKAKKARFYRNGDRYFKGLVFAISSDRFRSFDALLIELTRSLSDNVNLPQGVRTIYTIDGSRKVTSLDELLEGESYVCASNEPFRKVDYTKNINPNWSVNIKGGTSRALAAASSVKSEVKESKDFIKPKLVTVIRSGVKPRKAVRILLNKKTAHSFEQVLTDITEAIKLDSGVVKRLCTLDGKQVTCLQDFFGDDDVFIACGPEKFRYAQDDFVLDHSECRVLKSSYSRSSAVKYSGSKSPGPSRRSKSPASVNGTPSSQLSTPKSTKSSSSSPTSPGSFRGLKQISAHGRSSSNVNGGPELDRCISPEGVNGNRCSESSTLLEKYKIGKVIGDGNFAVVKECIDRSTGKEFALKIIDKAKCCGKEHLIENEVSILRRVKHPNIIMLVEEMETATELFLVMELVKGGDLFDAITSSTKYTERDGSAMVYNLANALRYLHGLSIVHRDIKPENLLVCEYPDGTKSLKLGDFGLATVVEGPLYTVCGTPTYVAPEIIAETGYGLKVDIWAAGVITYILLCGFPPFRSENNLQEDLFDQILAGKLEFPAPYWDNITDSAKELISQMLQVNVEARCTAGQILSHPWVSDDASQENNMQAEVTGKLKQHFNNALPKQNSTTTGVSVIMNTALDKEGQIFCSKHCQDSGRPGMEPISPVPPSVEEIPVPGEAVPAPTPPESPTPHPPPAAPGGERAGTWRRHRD
The test can be described thus: Inhibition of human full length DCAMKL2 expressed in baculovirus assessed as substrate phosphorylation using fluorescence-labelled peptides as substrate at 420 uM after 90 mins by microfluidic peptide phosphorylation assay.

The target in test [3] is Calcium/calmodulin-dependent protein kinase type II subunit beta (Homo sapiens) (UniProt Q13554). The test can be described thus: Inhibition of human CAMK2 beta catalytic domain expressed in baculovirus assessed as substrate phosphorylation using fluorescence-labelled peptides as substrate at 420 uM after 90 mins by microfluidic peptide phosphorylation assay.
Test [4] deals with Protein kinase C theta type (Homo sapiens) (UniProt Q04759). The experiment in a line: Inhibition of human truncated PKC theta expressed in baculovirus assessed as substrate phosphorylation using fluorescence-labelled peptides as substrate at 9 uM after 90 mins by microfluidic peptide phosphorylation assay.
The target in test [5] is T2, Testis-specific serine/threonine-protein kinase 2 (Homo sapiens) (UniProt Q96PF2).
T2 sequence (whole entry): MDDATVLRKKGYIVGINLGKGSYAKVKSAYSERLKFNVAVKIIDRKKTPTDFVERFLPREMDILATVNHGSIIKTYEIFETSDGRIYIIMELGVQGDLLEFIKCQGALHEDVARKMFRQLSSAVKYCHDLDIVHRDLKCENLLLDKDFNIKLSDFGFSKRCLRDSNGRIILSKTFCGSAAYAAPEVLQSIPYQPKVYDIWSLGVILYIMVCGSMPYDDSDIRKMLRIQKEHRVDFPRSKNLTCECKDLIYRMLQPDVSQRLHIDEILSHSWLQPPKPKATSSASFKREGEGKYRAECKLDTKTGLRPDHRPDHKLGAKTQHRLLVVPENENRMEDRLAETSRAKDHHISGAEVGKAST
The test can be described thus: Inhibition of human full length TSSK2 expressed in baculovirus assessed as substrate phosphorylation using fluorescence-labelled peptides as substrate at 8 uM after 90 mins by microfluidic peptide phosphorylation assay.

Test [6] addresses Ribosomal protein S6 kinase alpha-5 (Homo sapiens) (UniProt O75582). The experiment in a line: Inhibition of human full length MSK1 expressed in baculovirus assessed as substrate phosphorylation using fluorescence-labelled peptides as substrate at 1000 uM after 90 mins by microfluidic peptide phosphorylation assay.
In test [7] the target is Protein kinase C beta type (Homo sapiens) (UniProt P05771). The experiment in a line: Inhibition of human truncated PKC beta1 expressed in baculovirus assessed as substrate phosphorylation using fluorescence-labelled peptides as substrate at 1000 uM after 90 mins by microfluidic peptide phosphorylation assay.
For test [8], the target named is T3, cGMP-dependent protein kinase 1 (Homo sapiens) (UniProt Q13976).
T3 sequence (whole entry): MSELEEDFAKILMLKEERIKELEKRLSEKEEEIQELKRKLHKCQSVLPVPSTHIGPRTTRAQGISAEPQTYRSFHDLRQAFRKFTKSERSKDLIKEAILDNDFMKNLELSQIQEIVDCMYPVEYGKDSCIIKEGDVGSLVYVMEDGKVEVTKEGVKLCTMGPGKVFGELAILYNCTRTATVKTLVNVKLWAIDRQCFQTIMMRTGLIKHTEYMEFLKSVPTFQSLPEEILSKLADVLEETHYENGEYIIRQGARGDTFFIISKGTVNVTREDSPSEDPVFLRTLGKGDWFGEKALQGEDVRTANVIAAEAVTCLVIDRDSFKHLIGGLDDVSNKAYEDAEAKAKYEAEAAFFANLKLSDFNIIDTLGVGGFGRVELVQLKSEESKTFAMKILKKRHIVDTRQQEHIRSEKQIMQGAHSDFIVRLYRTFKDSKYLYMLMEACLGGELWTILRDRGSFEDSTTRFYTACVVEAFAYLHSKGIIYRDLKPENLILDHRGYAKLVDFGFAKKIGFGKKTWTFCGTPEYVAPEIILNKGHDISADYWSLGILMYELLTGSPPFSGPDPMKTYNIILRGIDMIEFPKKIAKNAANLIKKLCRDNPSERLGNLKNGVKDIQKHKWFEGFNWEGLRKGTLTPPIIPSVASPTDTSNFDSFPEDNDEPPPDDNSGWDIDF
The experiment in a line: Inhibition of human full length PKG-1beta expressed in baculovirus assessed as substrate phosphorylation using fluorescence-labelled peptides as substrate at 2 uM after 90 mins by microfluidic peptide phosphorylation assay.

Test [9] addresses Protein kinase C theta type (Homo sapiens) (UniProt Q04759). The test can be described thus: Inhibition of human truncated PKC theta expressed in baculovirus assessed as substrate phosphorylation using fluorescence-labelled peptides as substrate at 70 uM after 90 mins by microfluidic peptide phosphorylation assay.
Test [10] deals with Ribosomal protein S6 kinase alpha-1 (Homo sapiens) (UniProt Q15418). The test can be described thus: Inhibition of human full length RSK1 expressed in baculovirus assessed as substrate phosphorylation using fluorescence-labelled peptides as substrate at 70 uM after 90 mins by microfluidic peptide phosphorylation assay.
Chain of Ribosomal protein S6 kinase alpha-1 (Homo sapiens) (Q15418 whole entry): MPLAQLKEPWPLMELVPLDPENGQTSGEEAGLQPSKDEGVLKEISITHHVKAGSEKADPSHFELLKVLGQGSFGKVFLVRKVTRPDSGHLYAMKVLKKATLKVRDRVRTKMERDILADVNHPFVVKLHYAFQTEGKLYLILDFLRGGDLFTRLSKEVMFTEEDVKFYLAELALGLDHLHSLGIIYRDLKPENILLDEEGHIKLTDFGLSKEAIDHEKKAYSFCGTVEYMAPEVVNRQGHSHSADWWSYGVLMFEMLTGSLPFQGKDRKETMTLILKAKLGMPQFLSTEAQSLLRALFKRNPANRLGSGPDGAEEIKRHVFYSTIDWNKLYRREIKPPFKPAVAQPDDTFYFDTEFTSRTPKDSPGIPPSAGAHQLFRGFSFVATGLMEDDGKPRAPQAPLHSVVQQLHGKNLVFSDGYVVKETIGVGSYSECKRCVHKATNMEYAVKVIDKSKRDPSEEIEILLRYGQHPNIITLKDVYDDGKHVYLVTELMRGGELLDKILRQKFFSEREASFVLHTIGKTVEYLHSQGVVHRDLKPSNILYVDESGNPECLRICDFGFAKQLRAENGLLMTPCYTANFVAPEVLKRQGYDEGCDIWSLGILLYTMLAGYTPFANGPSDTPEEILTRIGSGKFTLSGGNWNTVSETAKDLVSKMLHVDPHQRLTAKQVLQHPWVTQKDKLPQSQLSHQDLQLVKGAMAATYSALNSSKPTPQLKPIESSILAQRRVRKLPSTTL

Chain of Protein kinase C theta type (Homo sapiens) (Q04759 whole entry, looked up, the tested form may be a part): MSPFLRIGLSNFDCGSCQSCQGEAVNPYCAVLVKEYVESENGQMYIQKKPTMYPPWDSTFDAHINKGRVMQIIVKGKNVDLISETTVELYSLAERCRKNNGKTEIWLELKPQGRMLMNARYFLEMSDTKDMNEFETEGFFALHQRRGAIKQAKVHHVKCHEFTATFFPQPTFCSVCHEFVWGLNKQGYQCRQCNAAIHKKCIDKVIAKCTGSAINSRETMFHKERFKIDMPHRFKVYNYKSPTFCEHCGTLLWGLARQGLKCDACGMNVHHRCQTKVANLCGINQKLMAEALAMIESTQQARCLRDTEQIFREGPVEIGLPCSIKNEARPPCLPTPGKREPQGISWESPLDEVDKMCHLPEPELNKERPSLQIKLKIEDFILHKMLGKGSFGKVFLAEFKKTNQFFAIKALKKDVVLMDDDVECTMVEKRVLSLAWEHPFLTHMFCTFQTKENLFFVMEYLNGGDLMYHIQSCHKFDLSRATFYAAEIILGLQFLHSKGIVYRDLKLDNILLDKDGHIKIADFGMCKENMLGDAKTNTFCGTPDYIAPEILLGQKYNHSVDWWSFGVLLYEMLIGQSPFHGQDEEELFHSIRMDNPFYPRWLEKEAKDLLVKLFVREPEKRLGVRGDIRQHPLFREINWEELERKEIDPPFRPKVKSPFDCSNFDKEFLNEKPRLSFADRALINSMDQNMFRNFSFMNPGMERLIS
Chain of Calcium/calmodulin-dependent protein kinase type II subunit beta (Homo sapiens) (Q13554 whole entry, the tested form may be a part): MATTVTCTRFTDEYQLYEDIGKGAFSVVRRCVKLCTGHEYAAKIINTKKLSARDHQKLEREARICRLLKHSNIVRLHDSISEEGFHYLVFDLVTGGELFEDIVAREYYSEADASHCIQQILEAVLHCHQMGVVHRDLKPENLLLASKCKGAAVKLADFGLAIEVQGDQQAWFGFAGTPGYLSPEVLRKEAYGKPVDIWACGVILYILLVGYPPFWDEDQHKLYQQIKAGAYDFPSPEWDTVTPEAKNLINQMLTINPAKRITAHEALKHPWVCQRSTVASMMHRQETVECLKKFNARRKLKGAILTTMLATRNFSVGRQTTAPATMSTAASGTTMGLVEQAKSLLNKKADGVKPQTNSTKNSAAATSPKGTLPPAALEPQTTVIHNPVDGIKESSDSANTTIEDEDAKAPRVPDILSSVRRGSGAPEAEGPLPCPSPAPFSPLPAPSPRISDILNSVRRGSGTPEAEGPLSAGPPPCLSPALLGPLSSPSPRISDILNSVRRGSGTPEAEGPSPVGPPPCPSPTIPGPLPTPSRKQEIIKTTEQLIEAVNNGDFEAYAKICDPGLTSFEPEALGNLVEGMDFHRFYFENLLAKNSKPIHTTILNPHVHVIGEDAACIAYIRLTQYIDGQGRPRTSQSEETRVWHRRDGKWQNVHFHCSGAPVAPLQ
Chain of Ribosomal protein S6 kinase alpha-5 (Homo sapiens) (O75582 whole entry, looked up, the tested form may be a part): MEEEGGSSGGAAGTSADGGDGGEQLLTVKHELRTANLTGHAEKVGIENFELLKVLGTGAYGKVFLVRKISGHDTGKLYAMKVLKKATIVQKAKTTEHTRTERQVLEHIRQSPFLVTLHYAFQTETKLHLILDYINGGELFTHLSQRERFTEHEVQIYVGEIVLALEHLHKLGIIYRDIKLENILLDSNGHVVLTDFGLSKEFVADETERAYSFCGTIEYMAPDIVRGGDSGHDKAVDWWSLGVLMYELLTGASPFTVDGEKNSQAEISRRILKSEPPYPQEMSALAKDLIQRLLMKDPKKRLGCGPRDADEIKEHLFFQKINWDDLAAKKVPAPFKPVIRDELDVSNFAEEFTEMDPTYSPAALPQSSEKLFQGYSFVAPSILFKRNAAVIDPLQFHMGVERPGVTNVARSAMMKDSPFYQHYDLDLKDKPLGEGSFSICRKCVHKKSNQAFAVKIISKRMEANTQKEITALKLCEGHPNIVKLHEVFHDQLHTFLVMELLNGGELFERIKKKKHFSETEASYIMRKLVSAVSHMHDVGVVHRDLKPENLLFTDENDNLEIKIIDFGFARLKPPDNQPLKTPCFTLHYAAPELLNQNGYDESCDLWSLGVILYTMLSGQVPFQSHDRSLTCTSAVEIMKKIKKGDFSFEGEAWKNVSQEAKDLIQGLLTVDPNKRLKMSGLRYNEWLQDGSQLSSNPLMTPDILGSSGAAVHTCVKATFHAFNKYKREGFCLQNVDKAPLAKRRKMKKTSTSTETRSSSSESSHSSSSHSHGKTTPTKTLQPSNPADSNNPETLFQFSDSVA
Chain of Fibroblast growth factor receptor 2 (Homo sapiens) (P21802 22-821 limits assumed): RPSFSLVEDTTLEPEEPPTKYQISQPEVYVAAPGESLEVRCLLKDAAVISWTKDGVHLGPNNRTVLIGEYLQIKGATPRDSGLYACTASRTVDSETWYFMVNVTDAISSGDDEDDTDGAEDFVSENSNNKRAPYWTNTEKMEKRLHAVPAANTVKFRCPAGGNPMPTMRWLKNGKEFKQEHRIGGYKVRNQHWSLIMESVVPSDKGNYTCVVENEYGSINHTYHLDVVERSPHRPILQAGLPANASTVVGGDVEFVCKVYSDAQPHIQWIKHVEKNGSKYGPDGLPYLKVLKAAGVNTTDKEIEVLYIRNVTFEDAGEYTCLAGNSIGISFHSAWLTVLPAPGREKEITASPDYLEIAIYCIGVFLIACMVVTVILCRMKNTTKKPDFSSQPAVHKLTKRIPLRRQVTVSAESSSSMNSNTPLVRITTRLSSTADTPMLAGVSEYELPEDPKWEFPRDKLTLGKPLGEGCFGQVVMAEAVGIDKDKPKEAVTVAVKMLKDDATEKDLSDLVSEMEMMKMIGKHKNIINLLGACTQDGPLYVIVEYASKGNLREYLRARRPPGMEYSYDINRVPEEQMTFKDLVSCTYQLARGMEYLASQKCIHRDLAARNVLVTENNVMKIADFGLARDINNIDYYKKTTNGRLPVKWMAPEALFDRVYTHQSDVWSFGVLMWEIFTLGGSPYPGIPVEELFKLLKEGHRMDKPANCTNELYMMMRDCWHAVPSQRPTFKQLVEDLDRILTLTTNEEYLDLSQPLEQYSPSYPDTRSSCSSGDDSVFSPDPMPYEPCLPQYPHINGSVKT
Chain of Protein kinase C beta type (Homo sapiens) (P05771 2-671 limits assumed): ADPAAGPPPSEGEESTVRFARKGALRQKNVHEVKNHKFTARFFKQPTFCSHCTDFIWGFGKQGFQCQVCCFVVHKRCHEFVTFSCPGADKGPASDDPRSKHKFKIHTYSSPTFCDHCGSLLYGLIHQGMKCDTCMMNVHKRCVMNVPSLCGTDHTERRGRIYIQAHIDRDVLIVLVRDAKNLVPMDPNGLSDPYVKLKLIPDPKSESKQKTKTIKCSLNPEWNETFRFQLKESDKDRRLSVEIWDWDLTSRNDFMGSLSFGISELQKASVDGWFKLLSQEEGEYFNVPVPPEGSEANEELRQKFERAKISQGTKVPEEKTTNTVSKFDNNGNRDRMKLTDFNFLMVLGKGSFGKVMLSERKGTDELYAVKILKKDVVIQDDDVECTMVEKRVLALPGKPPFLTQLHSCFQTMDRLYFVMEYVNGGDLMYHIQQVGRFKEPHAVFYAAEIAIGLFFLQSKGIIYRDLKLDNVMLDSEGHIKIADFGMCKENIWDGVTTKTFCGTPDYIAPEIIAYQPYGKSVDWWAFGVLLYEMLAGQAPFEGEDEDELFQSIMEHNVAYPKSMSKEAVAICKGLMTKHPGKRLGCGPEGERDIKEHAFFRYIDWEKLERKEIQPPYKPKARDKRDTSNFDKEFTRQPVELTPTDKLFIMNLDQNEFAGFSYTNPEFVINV

`Clc1ccc(C2(c3ccc(-c4ncnc5[nH]cnc45)cc3)CCNCC2)cc1`: in test [1], the inhibition is 4%.

Regarding `c1nc(N2CCOCC2)c2nc[nH]c2n1`, the inhibition in test [2] worked out at 41.5%; in [3], 20.5%.

Consider `NCC1CN(c2ncnc3[nH]c4cnccc4c23)CCO1` (stereo not given), for which, in test [4], the inhibition amounted to 52.5%.

`NCC1CCN(c2ncnc3[nH]ccc23)CC1`: the inhibition in test [5] came out at 23.5%.

For `c1cnc2[nH]ccc2c1`, the inhibition in test [6] was 87%; in test [7] it was 46%.

As for `NC1CCN(c2ncnc3[nH]ccc23)CC1`, in [8], the inhibition is 8.5%.

For `CNCc1ccc(-c2ncnc3[nH]cnc23)cc1`, the inhibition in [9] was 67.5%; in test [10] it was 48%.
